Test results from PubChem BioAssay (NCI).
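Where inhibition never reached the appropriate level, the endpoint shown equals the highest concentration tested. Otherwise, values were interpolated linearly from a five-concentration, 48-hour dose response in 96-well plates. TGI: total growth inhibition.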

Test system: SN12K1 renal
Experiment: NCI anticancer screen, dose series, 48 h

## COC1/C=C/O[C@@]2(C)Oc3c(C)c(O)c4c(O)c(cc(O)c4c3C2=O)NC(=O)/C(C)=C\C=C\[C@H](C)C(O)[C@@H](C)[C@@H](O)[C@@H](C)[C@H](OC(C)=O)[C@@H]1C (some centres not stated)
  TGI: 33.5 µM

## O=C(Cn1ccnc1[N+](=O)[O-])N(CCO)CCO
  TGI: > 1250 µM
